pKi: −log10 of the molar value. “Also recorded” adds a separate entry of the source.
Tests used:
[1] = target: glutamate cysteine ligase (GCL, EC 6.3.2.2); conditions: nonallosteric competitive inhibition; cited from earlier work
[2] = test system: Light melanin human skin explant; experiment: Human skin explants exposed to UVA radiation, GSSG/thiol analysed by LCMS; type: cell-based; conditions: for Levels of thiol production in human skin exposed to UVA-induced oxidative skin damage: FIG. 3; for Dermal GSSG / levels of GSSG production: topical 100 mM in 10% DMSO/water 30 min prior to UVA (24 J/cm2), tissue harvested 24 hours after UVA, single donor, n=6
Procedure: Effects of NPI-001 (NACA 10 mM) and diNACA (10 mM) on human skin explants upon radiation (UVA) exposure.
Light melanin human skin explant (single donor; n=6) in transwells were exposed to UVA radiation (24 J/cm2) with and without topical application of the NPI-001 and diNACA at a final concentration of 100 mM (NPI-001 16.2 mg/ml; diNACA 32.2 mg/ml) dissolved or suspended in 10% DMSO/water and applied at ˜18 μl/cm2(˜6 μl/0.33 cm2) 30 min prior to UVA exposure (24 J/cm2 exposure). 24 hours following UVA exposure tissue was harvested, cut in half and heat separated into epidermal and dermal layers; weighed; immediate submersion of the dermal and epidermal layers into a derivatization solution, analyzed by LCMS.

[3] = cited from earlier work
[4] = test system: Reconstructed human epithelium (RHE) with melanocytes (MelanoDerm); experiment: Reconstructed human epithelium (RHE) model to assess decrease of pigmentation in skin (photographs, melanin extraction); type: cell-based; conditions: for RHE pigmentation: MelanoDerm RHE cultured 14 days, basolateral treatment every other day, NACA 10 mM, diNACA 10 mM, 2% GSSG, vs relative day untreated control
Procedure: Reconstructed human epithelium (RHE) model to assess the ability of NPI-001 and NPI2 to decrease pigmentation in skin:
Reconstructed human epithelium (RHE) with melanocytes were obtained from MatTek (MelanoDerm™ cat #MEL-300B). RHE were cultured for 14 days with reapplication of media with basolateral treatment every other day. Day 0, Day 7 and Day 14 RHE were photographed and frozen for melanin extraction.
After harvest of RHE on Day 14, cultures were submerged for 30 min in 1% sodium bicarbonate and transferred to Eppendorf tubes with 500 μl Solvable™ reagent for overnight incubation at 60° C. A synthetic melanin standard curve was made in Solvable™ reagent from 0.5-0.0039 mg/ml in half dilutions. 200 μl of extracted melanin was transferred to a 96 well plate and read at 490 nm for quantification.

N[C@@H](CCC(=O)N[C@@H](CS)C(=O)NCC(=O)O)C(=O)O [GSH, c-L-glutamyl-L-cysteinyl-glycine]
pKi [1]: 2.64

CC(=O)N[C@@H](CS)C(N)=O
Levels of thiol production in human skin exposed to UVA-induced oxidative skin damage [2]: increased | Dermal GSSG / levels of GSSG production [2]: increased; also recorded: statistically significant increases

CC(=O)N[C@@H](CS)C(=O)O [NAC, N-acetylcysteine]
NAC detectable after administration ([3]; 10-12 hours after administration): no NAC is detectable | Plasma half-life ([3]; humans): 2.5 h | Absorption and clearance ([3]; oral dose of 600 mg in humans): rapidly absorbed and then rapidly cleared

CC(=O)N[C@@H](CSSC[C@H](NC(C)=O)C(N)=O)C(N)=O [diNACA, (2R,2R′)-3,3′-disulfanediyl bis(2-acetamidopropanamide)]
RHE pigmentation [4]: decreased; also recorded: significantly inhibited | RHE pigmentation ([4]; listed as NPI2): decreased | Melanin extracted from RHE ([4]; after 0, 7 and 14 days with treatment, read at 490 nm, vs untreated control at relative day of harvest): decreased | Levels of thiol production in human skin exposed to UVA-induced oxidative skin damage [2]: increased | Dermal GSSG / levels of GSSG production [2]: increased; also recorded: statistically significant increases
